Laboratory results published in patent US20240207457A1, “CANCER-SPECIFIC POLYPEPTIDE AND USE THEREOF” (THE CATHOLIC UNIVERSITY OF KOREA INDUSTRY-ACADEMIC …, priority 2021, published 2024).
Where no end group is shown, it is not given here.

Assays:
[1] = tested on: MKN45 cells; assay: ROS detection by DCF-DA staining; assay type: cell-based; conditions: Ce6-peptide with laser irradiation, FIG. 9
Method: To confirm whether cells were killed by photodynamic therapy, DCF-DA staining was performed to check whether cell death, the mechanism of the corresponding treatment, was caused by reactive oxygen species (ROS).

[2] = tested on: AGS, MKN45, and MKN28 gastric cancer cell lines and CCD841 normal cells; assay: Cellular uptake of Ce6-peptide; assay type: cell-based; conditions: 10 uM; FIG. 7
Method: (§1) To confirm the tumor-targeting and therapeutic efficacies of the peptide, photodynamic therapy using chlorin e6 (Ce6), a photosensitizer, was performed. First, to confirm the degree of cellular uptake of Ce6-peptide, AGS, MKN45, and MKN28, gastric cancer cell lines, and CCD841 cells, normal cells, were each independently treated with the Ce6-peptide at a concentration of 10 uM.

[3] = tested on: MKN45 cells; assay: Dark toxicity experiment without laser irradiation; assay type: cell-based; conditions: for dark toxicity: 0 to 100 nM and 1 μM, FIGS. 8A and 8B
Method: To analyze cytotoxicity through photodynamic therapy, MKN45 cells were treated with Ce6 and the Ce6-peptide at concentrations of 0, 1, 5, 10, 20, 50, 100 nM, […]

[4] = tested on: MKN45 cells; assay: Photodynamic therapy cytotoxicity with laser irradiation; assay type: cell-based; conditions: laser 10 J, 500 mW, 3 cm, 2 minutes 35 seconds
Method: To analyze cytotoxicity through photodynamic therapy, MKN45 cells were treated with Ce6 and the Ce6-peptide at concentrations of 0, 1, 5, 10, 20, 50, 100 nM, and 1 μM and then irradiated with a laser beam based on 10 J, 500 mW, and 3 cm for 2 minutes and 35 seconds.

[5] = tested on: MKN45 xenograft mouse model; assay: Ex vivo tumor-targeting analysis of extracted organs (IVIS); assay type: in vivo, mice; conditions: organs extracted 4 hours after injection, 5 mg/kg
Method: To confirm the tumor-targeting ability of Ce6-peptide, an in vivo targeting experiment was performed on an MKN45 xenograft mouse model. Ce6 and the Ce6-peptide were injected at a concentration of 5 mg/kg into the tail vein of mice in which a tumor with a diameter of about 8 mm was developed. After 4 hours, the concentration of Ce6 in the tumor was confirmed using an in vivo imaging system (IVIS).
In addition, organs were extracted from each subject 4 hours after the injection to analyze tumor-targeting ability ex vivo using an IVIS.

[6] = tested on: MKN45 xenograft mouse model; assay: Local tumor treatment efficacy through peptide and laser irradiation; assay type: in vivo, mice; conditions: for body weight during the treatment period: laser 200 J
Method: To confirm local tumor treatment efficacy using the peptide, an experiment was performed by dividing the mice in Example 6 into four groups: an untreated group, a group irradiated with a laser beam, a group irradiated with a laser beam after Ce6 administration, and a group irradiated with a laser beam after Ce6-peptide administration. Ce6 and the Ce6-peptide were administered at a concentration of 5 mg/kg into the tail vein. When 4 hours elapsed, the tumor area was irradiated with a laser beam for 9 minutes under conditions based on 200 J and 300 mW.

[7] = tested on: MKN45 intraperitoneal metastasis model; assay: Peptide targeting ability in intraperitoneal metastasis model (IVIS); assay type: in vivo, Balb/c nude mice; conditions: 5 mg/kg
Method: Through Example 6, the targeting ability in vivo of the peptide was confirmed in the xenograft model using MKN45, the gastric cancer cell line. Accordingly, to further verify the targeting ability in an intraperitoneal metastasis model, the same MKN45 cell line was injected intraperitoneally, and the targeting ability of the peptide was further verified.
Intraperitoneal metastasis was confirmed within two weeks by injecting 1×10^7 of the GFP-tagged MKN45 cell line into 5-week-old Balb/c nude mice. As a result, as shown in FIGS. 14A and 14B, additional infiltration of the cells into the liver, kidney, and spleen tissues and large tumors with a size of about 2 cm were observed.
To confirm the targeting ability of the peptide, modeled mice with intraperitoneal metastasis were treated with Ce6 and the Ce6-peptide at a concentration of 5 mg/kg and autopsied 4 hours after the treatment to confirm the concentration of the substance in the tissues using an IVIS.

[8] = tested on: MKN45 xenograft model; assay: Targeting ability in vivo of Cy5.5-binding peptide; set-up: species or system mice; conditions: FIGS. 6A and 6B
Method: Through Examples 1 to 3, the gastric cancer-targeting ability of the peptide was confirmed at the cellular level. Accordingly, to confirm the targeting ability in vivo, a xenograft model was created using MKN45 in 5-week-old immunodeficient mice. Then, Cy5.5-binding peptide was injected at a concentration of 50 nM into the tail vein.

[9] = tested on: CCD841 cells and MKN45 cells; assay: Fluorescence density saturation of FITC-peptide; assay type: cell-based; conditions: FIG. 4
Method: To confirm the maximum fluorescence absorption capacity of FITC-peptide, CCD841 cells and MKN45 cells were attached to each 8-well chamber. Then, the chamber was treated with the peptide at concentrations of 1, 10, 25, 50, 100, 200, 400, and 800 uM.

[10] = tested on: MKN45 gastric cancer cells vs CCD841 normal cells; assay: FITC fluorescence density by flow cytometer; assay type: cell-based; conditions: 25, 50, and 100 µM for 1 hour, FIGS. 5A and 5B
Method: In addition, after treating each of the CCD841 cells and the MKN45 cells with FITC-peptide at a concentration of 25, 50, and 100 µM for 1 hour, the FITC fluorescence density was measured using a flow cytometer.

[11] = tested on: AGS, MKN45, and MKN28, the gastric cancer cell lines (vs CCD841 normal colonic epithelial cell line); assay: Immunochemical staining of FITC-bound phage and peptide (attachment ability); assay type: cell-based; conditions: bound to FITC, FIG. 2
Text: (§2) To confirm the attachment abilities, phage No. 24 and the peptide were each independently bound to FITC to perform immunochemical staining.

[12] = tested on: HEK293T kidney cells not containing the LGR5 receptor; assay: Immunochemical staining of FITC-peptide in HEK293T cells; assay type: cell-based; conditions: bound to FITC, FIG. 3
Text: as §2

[13] = tested on: tumor tissue; assay: Tumor tissue treated with FITC-bound target and negative control peptide; conditions: peptides binding to FITC; FIG. 13
Method: To confirm the tumor-targeting ability of the target peptide, the tumor tissue was treated with both the target peptide and a negative control peptide, not having the attachment ability to tumors, binding to FITC. The negative control peptide is a peptide made by randomly mixing the amino acid positions of the […] peptide sequence “QLMRPPV” (SEQ ID NO: 2).

[14] = biological target: T1, LGR5 protein on gastric cancer cell lines (AGS, MKN45, MKN28) (UniProt O75473 22-907, limits assumed); assay: cell fluorescence after 10 uM Ce6-peptide on AGS, MKN45 and MKN28 versus CCD841 cells
T1 construct: whole, on cells; also called LGR5 receptor; gastric cancer cell lines containing LGR5
T1 sequence (looked up): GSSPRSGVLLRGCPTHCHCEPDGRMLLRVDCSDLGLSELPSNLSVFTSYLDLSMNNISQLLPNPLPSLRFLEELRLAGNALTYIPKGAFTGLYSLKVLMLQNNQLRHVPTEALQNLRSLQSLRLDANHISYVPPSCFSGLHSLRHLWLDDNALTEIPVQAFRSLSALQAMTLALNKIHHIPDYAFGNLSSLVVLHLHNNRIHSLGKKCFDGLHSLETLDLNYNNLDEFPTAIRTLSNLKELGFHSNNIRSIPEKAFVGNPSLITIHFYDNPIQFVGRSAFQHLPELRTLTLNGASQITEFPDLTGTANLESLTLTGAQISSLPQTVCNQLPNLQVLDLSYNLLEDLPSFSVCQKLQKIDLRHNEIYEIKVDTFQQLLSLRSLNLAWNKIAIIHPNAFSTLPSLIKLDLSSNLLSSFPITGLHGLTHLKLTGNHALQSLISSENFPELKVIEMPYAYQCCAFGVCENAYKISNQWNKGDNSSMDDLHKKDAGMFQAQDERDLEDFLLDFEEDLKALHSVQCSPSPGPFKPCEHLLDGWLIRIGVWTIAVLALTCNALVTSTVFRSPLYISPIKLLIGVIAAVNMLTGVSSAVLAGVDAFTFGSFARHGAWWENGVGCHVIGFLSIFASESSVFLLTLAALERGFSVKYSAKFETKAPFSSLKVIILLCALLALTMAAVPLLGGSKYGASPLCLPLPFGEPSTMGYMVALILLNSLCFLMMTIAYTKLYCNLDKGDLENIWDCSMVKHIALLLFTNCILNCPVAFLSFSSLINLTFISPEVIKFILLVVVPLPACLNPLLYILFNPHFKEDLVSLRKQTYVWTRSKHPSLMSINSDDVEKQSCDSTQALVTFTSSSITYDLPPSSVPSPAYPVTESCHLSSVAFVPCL
Method: as §1

[15] = 5 mg/kg tail vein, 300 mW, 9 minutes
[16] = injected at 50 nM into the tail vein

OO [hydrogen peroxide, reference compound]
ROS detection [1]: ROS was detected

Ce6-peptide: peptide of SEQ ID NO: 1 bound to chlorin e6 (Ce6), a photosensitizer (STCTRSR; also: bound to chlorin e6 (site not given here))
fluorescence density, gastric cancer cell lines compared with normal cell line [2]: higher
dark toxicity [3]: significant toxicity was not induced
cells killed ([3]; 1 μM): 60%
concentration from which cells were rapidly killed [4]: ≥ 50 nM
ROS detection [1]: detected in a concentration-dependent manner
tumor-targeting ability ex vivo compared with Ce6 alone [5]: significantly better
body weight during the treatment period [6, 15]: No change in body weight was observed
time after the treatment at which tumor necrosis was observed ([6]; 5 mg/kg tail vein, laser after 4 hours, 200 J, 300 mW, 9 minutes): 2 days
tumor size compared with the other groups ([6]; on the 7th day, 5 mg/kg plus laser, FIGS. 12A and 12B): significantly reduced
concentration in the kidney ([7]; 4 hours after the treatment): high concentration in the kidney
excretion from the body compared with Ce6 alone ([7]; 4 hours after the treatment): more likely to be excreted from the body
non-specific binding to other organs compared with Ce6 alone ([7]; 4 hours after the treatment): less likely to non-specifically bind to other organs
tumor-targeting ability compared with Ce6 alone ([7]; autopsied 4 hours after the treatment, FIGS. 15A and 15B): better

Cy5.5-binding peptide: peptide of SEQ ID NO: 1 bound to Cy5.5, a fluorescent material (STCTRSR; also: bound to Cy5.5 (site not given here))
tumor-targeting ability compared with the control peptide group [8]: further better tumor-targeting ability
fluorescence density in the tumor tissue [8, 16]: significantly high fluorescence density
fluorescence in other organs (heart, lung, liver, spleen, kidney) [8, 16]: poorly detected

FITC-peptide: peptide of SEQ ID NO: 1 bound to FITC, a fluorescent material (STCTRSR; also: bound to FITC (site not given here))
concentration from which fluorescence density was saturated in all cells ([9]; CCD841 and MKN45 cells): ≥ 100 UM
concentration at which the difference in fluorescence density values between CCD841 and MKN45 cells was the largest ([9]; treated at 1 to 800 uM): 25 UM
FITC fluorescence density value, MKN45 compared with CCD841 [10]: increased in a concentration-dependent manner

STCTRSR (LGR5-targeting peptide)
attachment ability, gastric cancer cell lines compared with CCD841 ([11]; AGS, MKN45, MKN28 vs CCD841 normal colonic epithelial cell line): better
attachment ability in the MKN45 cell line ([11]; MKN45): significantly good
attachment ability in HEK293T kidney cells [12]: not able to be confirmed
fluorescence based on FITC attachment to tumor tissue [13]: significantly high

chlorin e6 [Ce6, reference compound]
dark toxicity [3]: significant toxicity was not induced
cell killing with laser irradiation [4]: cells were not killed
infiltration into the tumor compared with other organs (heart, lung, liver, spleen, kidney) ([5]; FIGS. 11A and 11B): more infiltrated into the tumor than into other organs
body weight during the treatment period [6, 15]: No change in body weight was observed

negative control peptide: peptide made by randomly mixing the amino acid positions of the non-specific binding peptide sequence QLMRPPV (SEQ ID NO: 2); bound to FITC (also: bound to FITC (site not given here)) [reference compound]
fluorescence based on FITC attachment to tumor tissue [13]: not confirmed

B1: Ce6-peptide (STCTRSR peptide of SEQ ID NO: 1 bound to chlorin e6) (peptide)
peptide: STCTRSR
modifications: also: chlorin e6 bound to the peptide (site not given here)
notes: also called photosensitizer-peptide composite
fold difference in uptake (fluorescence density), gastric cancer cell lines versus normal CCD841 cells [14]: ≥ 11 times
